Source: patent publication US8153556B2, “Synergistic herbicidal compositions containing benfluralin” (Dow AgroSciences LLC, priority 2009, dated 2012)

How the values were obtained:
Assay in all cases: Pre-emergence field weed control in winter wheat (visual rating)
Assay type in all cases: in vivo
[1] = tested on: VERHE = Veronica hederifolia L. (ivyleaf speedwell); details: Test 2, 150 days after application, benfluralin 1,200 g ai/ha, flufenacet 240 g ai/ha
Method: (§1) Soft winter wheat was planted using normal cultural practices in France and Germany in October under normal environmental conditions that allowed rapid germination and growth of wheat and weeds. Fields were prepared as per normal cultural practices, by applying appropriate fertilizers for normal winter wheat growth and yield, working and leveling the ground, and planting at normal time of year using 150 to 170 kg/ha seed with mechanical planters to maximize emergence, growth and yield. Weed infestations varied from 280 to 500 plants per square meter (plants/m^2).
(§2) Treatments consisted of benfluralin applied alone, as well as diflufenican, flufenacet and prosulfocarb applied alone, and in combination with benfluralin, to measure herbicidal weed control and any synergistic interactions. These treatments were applied using backpack sprayers applying spray volumes of 200-250 liters per hectare (L/ha) at a spray pressure of 230 KPA to plots 2.5 meters (m)×8 m, randomized 4 times per treatment. All treatments were applied pre-emergence to the soil, after planting the winter wheat. The pre-emergence treatments were activated with normal rainfall. Treatments were rated on a 0-100% scale, with 0%=no control and 100%=complete control.
(§3) Colby's equation was used to determine the herbicidal effects expected from the mixtures (Colby, S. R. Weeds 1967, 15, 20-22. Calculation of the synergistic and antagonistic response of herbicide combinations).
(§4) The following equation was used to calculate the expected activity of mixtures containing two active ingredients, A and B: Expected=A+B−(A×B/100)
(§5) A=observed efficacy of active ingredient A at the same concentration as used in the mixture.
(§6) B=observed efficacy of active ingredient B at the same concentration as used in the mixture.
(§7) The herbicide tankmix combinations tested, application rates and ratios employed, plant species tested, and results are given in Tables 1 to 6.

[2] = tested on: ALOMY = Alopecurus agrestis L. (blackgrass)
Method: as §1, §2, §3, §4, §5, §6, §7

[3] = tested on: GERRT = Geranium rotundifolium L. (round-leaved Cranesbill); details: benfluralin 1,000 g ai/ha
Method: as §1, §2, §3, §4, §5, §6, §7

[4] = tested on: GALAP = Galium aparine L. (cleavers); details: benfluralin 1,000 g ai/ha, prosulfocarb 3,000 g ai/ha
Method: as §1, §2, §3, §4, §5, §6, §7

[5] = Test 1, 13 days after application, benfluralin 1,200 g ai/ha, flufenacet 240 g ai/ha
[6] = Test 1, 27 days after application, benfluralin 1,000 g ai/ha, diflufenican 100 g ai/ha
[7] = Test 1, 27 days after application, benfluralin 1,000 g ai/ha, prosulfocarb 3,000 g ai/ha
[8] = Test 1, 174 days after application, benfluralin 1,000 g ai/ha, diflufenican 100 g ai/ha
[9] = Test 1, 174 days after application, benfluralin 1,000 g ai/ha, prosulfocarb 3,000 g ai/ha
[10] = Test 1, 236 days after application, benfluralin 1,000 g ai/ha, diflufenican 100 g ai/ha
[11] = Test 1, 236 days after application, benfluralin 1,000 g ai/ha, prosulfocarb 3,000 g ai/ha
[12] = Test 1, 236 days after application, benfluralin 1,200 g ai/ha, flufenacet 240 g ai/ha
[13] = Test 2, 169 days after application, benfluralin 1,000 g ai/ha, diflufenican 100 g ai/ha
[14] = Test 2, 189 days after application, benfluralin 1,000 g ai/ha, prosulfocarb 3,000 g ai/ha
[15] = Test 2, 189 days after application, benfluralin 1,200 g ai/ha, flufenacet 240 g ai/ha
[16] = Test 2, 199 days after application, benfluralin 1,000 g ai/ha, diflufenican 100 g ai/ha
[17] = Test 1, 27 days after application, diflufenican 100 g ai/ha
[18] = Test 1, 27 days after application, prosulfocarb 3,000 g ai/ha
[19] = Test 1, 174 days after application, prosulfocarb 3,000 g ai/ha
[20] = Test 1, 236 days after application, diflufenican 100 g ai/ha
[21] = Test 1, 236 days after application, prosulfocarb 3,000 g ai/ha
[22] = Test 1, 27 days after application
[23] = Test 1, 174 days after application
[24] = Test 1, 236 days after application

Structure (SMILES) | % Visual Weed Control VERHE Obs [1] | % Visual Weed Control ALOMY Obs [2, 5] | % Visual Weed Control ALOMY Obs [2, 6] | % Visual Weed Control ALOMY Obs [2, 7] | % Visual Weed Control ALOMY Obs [2, 8] | % Visual Weed Control ALOMY Obs [2, 9] | % Visual Weed Control ALOMY Obs [2, 10] | % Visual Weed Control ALOMY Obs [2, 11] | % Visual Weed Control ALOMY Obs [2, 12] | % Visual Weed Control ALOMY Obs [2, 13] | % Visual Weed Control ALOMY Obs [2, 14] | % Visual Weed Control ALOMY Obs [2, 15] | % Visual Weed Control ALOMY Obs [2, 16] | % Visual Weed Control GERRT Obs [3, 17] | % Visual Weed Control GERRT Obs [3, 18] | % Visual Weed Control GERRT Obs [3, 19] | % Visual Weed Control GERRT Obs [3, 20] | % Visual Weed Control GERRT Obs [3, 21] | % Visual Weed Control GALAP Obs [4, 22] | % Visual Weed Control GALAP Obs [4, 23] | other results
CCCCN(CC)c1c([N+](=O)[O-])cc(C(F)(F)F)cc1[N+](=O)[O-] [Benfluralin, N-butyl-N-ethyl-2,6-dinitro-4-(trifluoromethyl)benzenamine] | 43% | 7% | 17% | 17% | 20% | 20% | 23% | 23% | 29% | 0% | 0% | 0% | 0% | 6% | 6% | 7% | 7% | 7% | 7% | 8% | % Visual Weed Control GALAP Obs [4, 24]: 7%
O=C(Nc1ccc(F)cc1F)c1cccnc1Oc1cccc(C(F)(F)F)c1 [Diflufenican, N-(2,4-difluorophenyl)-2-[3-(trifluoromethyl)phenoxy]-3-pyridinecarboxamide] | – | – | 19% | – | 22% | – | 23% | – | – | 0% | – | – | 7% | 72% | – | – | 63% | – | – | – | –
CC(C)N(C(=O)COc1nnc(C(F)(F)F)s1)c1ccc(F)cc1 [Flufenacet, N-(4-fluorophenyl)-N-(1-methylethyl)-2-[[5-(trifluoromethyl)-1,3,4-thiadiazol-2-yl]oxy]acetamide] | 0% | 26% | – | – | – | – | – | – | 80% | – | – | 82% | – | – | – | – | – | – | – | – | –
CCCN(CCC)C(=O)SCc1ccccc1 [Prosulfocarb, S-(phenylmethyl) dipropylcarbamothioate] | – | – | – | 30% | – | 33% | – | 35% | – | – | 30% | – | – | – | 21% | 25% | – | 27% | 37% | 39% | % Visual Weed Control GALAP Obs [4, 24]: 42%
